Assay results: patent US20020104106A1, “Non-mammalian transgenic animal model for cellular proliferative diseases” (priority 1999, published 2002)

System: tumor fly model
Assay: Screening assay: extracts fed to v-myb tumor flies, delay of tumor progression
Type: in vivo, Drosophila melanogaster
Settings: extract concentration fed to the larva/fly that delayed tumor progression by 20% or more
Experimental: In the screening methods of the subject invention, a quantity of a candidate agent is generally orally administered to the fly. Following oral administration, the affect of the candidate agent on the metastatic tumors (or appearance thereof) of the fly is determined, typically by comparison with a control (i.e. a transgenic fly to which the candidate agent has not been administered). The affect of the candidate agent is determined by determining whether one or more of the phenotypic characteristics of the neoplastic condition are exacerbated or ameliorated in the test fly as compared to the control fly, where characteristics that are monitored include tumor growth, tumor metastasis, and the like. The candidate agent is generally orally administered to the fly by mixing the agent into the fly nutrient medium, e.g. water, aqueous solution with additional nutrient agents, etc., and placing the medium in the presence of the fly, (either the larva or adult fly, usually the adult fly) such that the fly feeds on the medium. Generally a plurality of assay mixtures are run in parallel with different agent concentrations to obtain a differential response to the various concentrations of candidate agent. Typically, one of these concentrations serves as a negative control, i.e. no compound. […]

**Q.** Which “Positive antitumor activity dose range” value does the source give for `CC(C)=CCC/C(C)=C/C=C/C(C)=C/C=C/C(C)=C/C=C/C=C(C)/C=C/C=C(C)/C=C/C=C(\C)CCC=C(C)C` [Lycopene] here?
**A.** Its value is “.01%-100%”.
